Measurements from US10023557B2 (LifeSci Pharmaceuticals, Inc., priority 2015, dated 2018).
pIC50: −log10 of the molar value.

These compounds were tested against human plasma kallikrein (Homo sapiens (Human), UniProt P03952) (assay: In vitro enzyme inhibition of human plasma kallikrein (PFR-AMC cleavage)). Settings: Pro-Phe-Arg-AMC substrate, 37° C., read-out: hPK IC50.
Assay type: biochemical
Experimental: The ability of the compounds disclosed herein to inhibit human plasma kallikrein activity was quantified according to the procedures below.
A 10 mM solution of the test compound was made in DMSO. […] A control tube containing only DMSO is included. 16 μL of each compound test solution was combined with 384 μL of assay buffer (50 mM Tris-HCl pH 7.5, 150 mM NaCl, 0.01% Triton X-100) to yield a “4× test compound buffer stock”.
These solutions are hereby referred to as 4× hPK and 2×PFR-AMC, respectively.
50 μL was removed from this mixture and placed into duplicate wells on a Microfluor 1Black U-bottom microtiter plate (Thermo Scientific). This plate was incubated for 5 minutes at 37° C. To each well, 50 μL of pre-warmed 2×PFR-AMC was added to start the enzymatic reaction. Cleavage of PFR-AMC was monitored in a Biotek Synergy H4 reader set at 37° C. Readings are taken every 43 seconds for 1 hour. […] The IC50 is calculated using the Gen5 (Biotek Instruments).
The ability of the compounds in Table 3 to inhibit human plasma kallikrein activity was determined.

Chain of human plasma kallikrein (P03952 391-638): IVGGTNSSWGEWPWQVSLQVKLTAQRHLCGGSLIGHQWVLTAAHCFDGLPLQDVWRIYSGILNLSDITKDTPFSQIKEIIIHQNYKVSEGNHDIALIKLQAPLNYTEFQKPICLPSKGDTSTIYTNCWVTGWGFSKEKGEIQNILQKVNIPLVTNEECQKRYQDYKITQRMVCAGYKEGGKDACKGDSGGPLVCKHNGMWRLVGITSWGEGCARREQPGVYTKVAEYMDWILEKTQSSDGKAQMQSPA
Chain of human plasma kallikrein (P03952 20-390 partner): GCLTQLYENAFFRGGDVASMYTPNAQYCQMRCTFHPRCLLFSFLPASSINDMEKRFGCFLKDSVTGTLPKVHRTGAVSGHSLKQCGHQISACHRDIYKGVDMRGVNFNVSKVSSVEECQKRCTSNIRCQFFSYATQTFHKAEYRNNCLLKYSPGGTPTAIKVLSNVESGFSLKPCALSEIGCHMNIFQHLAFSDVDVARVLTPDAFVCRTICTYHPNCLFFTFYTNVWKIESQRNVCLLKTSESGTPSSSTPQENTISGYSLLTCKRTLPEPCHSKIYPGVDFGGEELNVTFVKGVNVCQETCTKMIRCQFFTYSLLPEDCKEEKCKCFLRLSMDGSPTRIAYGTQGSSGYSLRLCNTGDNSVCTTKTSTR

SMILES | pIC50
O=C(NCc1nnc2ccc(Cl)cn12)c1ccnc(Cc2ccc3ncc(Cl)cc3c2)c1 [Example 154, N-((6-chloro-[1,2,4]triazolo[4,3-a]pyridin-3-yl)methyl)-2-((3-chloroquinolin-6-yl)methyl)isonicotinamide] | 6.00 to 7.00
Nc1cnc2ccc(Cc3cc(C(=O)NCc4n[nH]c5ccc(Cl)cc45)ccn3)cc2c1 [Example 299, 2-((3-aminoquinolin-6-yl)methyl)-N-((5-chloro-1H-indazol-3-yl)methyl)isonicotinamide] | 5.00 to 6.00
Cc1cc(N)nc(C)c1CNC(=O)c1ccnc(Cn2cc3cc(Cl)cnc3n2)c1 [Example 203, N-((6-amino-2,4-dimethylpyridin-3-yl)methyl)-2-((5-chloro-2H-pyrazolo[3,4-b]pyridin-2-yl)methyl)isonicotinamide] | 6.00 to 7.00
Cc1cc(N)nc(C)c1CNC(=O)c1ccnc(Cc2cnc3[nH]c(Cl)cc3c2)c1 [Example 150, N-((6-amino-2,4-dimethylpyridin-3-yl)methyl)-2-((2-chloro-1H-pyrrolo[2,3-b]pyridin-5-yl)methyl)isonicotinamide] | 6.00 to 7.00
Cc1cnc2c(C(C)(C)O)cc(Cc3cc(C(=O)NCc4cc5c(Cl)c[nH]c5cc4F)ccn3)cc2c1 [Example 314, N-((3-chloro-6-fluoro-1H-indol-5-yl)methyl)-2-((8-(2-hydroxypropan-2-yl)-3-methylquinolin-6-yl)methyl)isonicotinamide] | > 7.00
Cc1n[nH]c2ccc(CNC(=O)c3ccnc(Cc4ccc5ncc(Cl)cc5c4)c3)cc12 [Example 261, 2-((3-chloroquinolin-6-yl)methyl)-N-((3-methyl-1H-indazol-5-yl)methyl)isonicotinamide] | 5.00 to 6.00
Cc1nc(N)ccc1CNC(=O)c1ccnc(Cc2ccc3ncc(C(C)O)cc3c2)c1 (stereo not shown) [Example 263, N-((6-amino-2-methylpyridin-3-yl)methyl)-2-((3-(1-hydroxyethyl)quinolin-6-yl)methyl)isonicotinamide] | 6.00 to 7.00
O=C(NCc1ccc2[nH]cc(Cl)c2c1F)c1ccnc(Cc2ccc3ncc(N4CCCCC4)cc3c2)c1 [Example 305, N-((3-chloro-4-fluoro-1H-indol-5-yl)methyl)-2-((3-(piperidin-1-yl)quinolin-6-yl)methyl)isonicotinamide] | < 5.00
Cc1[nH]c2ccc(Cl)cc2c1CNC(=O)c1ccnc(Cc2ccc3ncc(Cl)cc3c2)c1 [Example 270, N-((5-chloro-2-methyl-1H-indol-3-yl)methyl)-2-((3-chloroquinolin-6-yl)methyl)isonicotinamide] | 6.00 to 7.00
O=C(NCc1n[nH]c2ccc(Cl)cc12)c1ccnc(Cc2ccc3ncc(C(F)(F)F)cc3c2)c1 [Example 233, N-((5-chloro-1H-indazol-3-yl)methyl)-2-((3-(trifluoromethyl)quinolin-6-yl)methyl)isonicotinamide] | > 7.00
Cc1nc2c(cc1CNC(=O)c1ccnc(Cc3ccc4ncc(C(F)(F)F)cc4c3)c1)CNC2 [Example 164, N-((2-methyl-6,7-dihydro-5H-pyrrolo[3,4-b]pyridin-3-yl)methyl)-2-((3-(trifluoromethyl)quinolin-6-yl)methyl)isonicotinamide] | < 5.00
Cc1cnc2c(C(C)(C)O)cc(Cc3cc(C(=O)NCc4ccc5c(N)nccc5c4)ccn3)cc2c1 [Example 319] | > 7.00
O=C(NCc1ccc2cnc(C(F)(F)F)n2c1)c1ccnc(Cc2ccc3ncc(Cl)cc3c2)c1 [Example 185, 2-((3-chloroquinolin-6-yl)methyl)-N-((3-(trifluoromethyl)imidazo[1,5-a]pyridin-6-yl)methyl)isonicotinamide] | < 5.00
Cc1ccn2c(C(F)(F)F)nc(CNC(=O)c3ccnc(Cc4ccc5ncc(Cl)cc5c4)c3)c2c1 [Example 160, 2-((3-chloroquinolin-6-yl)methyl)-N-((7-methyl-3-(trifluoromethyl)imidazo[1,5-a]pyridin-1-yl)methyl)isonicotinamide] | < 5.00
NCc1ccc(CNC(=O)c2ccnc(Cc3ccc4ncc(Cl)cc4c3)c2)nc1 [Example 170, N-((5-(aminomethyl)pyridin-2-yl)methyl)-2-((3-chloroquinolin-6-yl)methyl)isonicotinamide] | < 5.00
CCc1cnc2ccc(Cc3cc(C(=O)NCc4ccc(N)nc4C)ccn3)cc2c1 [Example 285, N-((6-amino-2-methylpyridin-3-yl)methyl)-2-((3-ethylquinolin-6-yl)methyl)isonicotinamide] | > 7.00
Cc1cc(C(C)(C)O)nc(C)c1CNC(=O)c1ccnc(Cc2ccc3ncc(C(F)(F)F)cc3c2)c1 [Example 174, N-((6-(2-hydroxypropan-2-yl)-2,4-dimethylpyridin-3-yl)methyl)-2-((3-(trifluoromethyl)quinolin-6-yl)methyl)isonicotinamide] | < 5.00

SMILES | pIC50
O=C(NCc1cc2c(Cl)c[nH]c2cc1F)c1ccnc(Cc2ccc3ncc(N4CCCCC4)cc3c2)c1 [Example 302, N-((3-chloro-6-fluoro-1H-indol-5-yl)methyl)-2-((3-(piperidin-1-yl)quinolin-6-yl)methyl)isonicotinamide] | 5.00 to 6.00
Nc1ncc2cc(CNC(=O)c3ccnc(Cc4ccc5ncc(Cl)cc5c4)c3)ccn12 [Example 187, N-((3-aminoimidazo[1,5-a]pyridin-7-yl)methyl)-2-((3-chloroquinolin-6-yl)methyl)isonicotinamide] | 6.00 to 7.00
Cc1n[nH]c2ncc(CNC(=O)c3ccnc(Cc4ccc5ncc(Cl)cc5c4)c3)cc12 [Example 266, 2-((3-chloroquinolin-6-yl)methyl)-N-((3-methyl-1H-pyrazolo[3,4-b]pyridin-5-yl)methyl)isonicotinamide] | 5.00 to 6.00
Cc1cc2[nH]cc(Cl)c2cc1CNC(=O)c1ccnc(Cc2ccc3ncc(Cl)cc3c2)c1 [Example 190, N-((3-chloro-6-methyl-1H-indol-5-yl)methyl)-2-((3-chloroquinolin-6-yl)methyl)isonicotinamide] | 6.00 to 7.00
Cc1cc(N)nc(C)c1CNC(=O)c1ccnc(Cc2ccc3ncc(CO)cc3c2)c1 [Example 257, N-((6-amino-2,4-dimethylpyridin-3-yl)methyl)-2-((3-(hydroxymethyl)quinolin-6-yl)methyl)isonicotinamide] | > 7.00
Cc1cc(N)nc(C)c1CNC(=O)c1ccnc(C(=O)c2ccc3ncc(Cl)cc3c2)c1 [Example 274, N-((6-amino-2,4-dimethylpyridin-3-yl)methyl)-2-(3-chloroquinoline-6-carbonyl)isonicotinamide] | 6.00 to 7.00
COc1cc(N)nc(C)c1CNC(=O)c1ccnc(Cc2ccc3ncc(Cl)cc3c2)c1 [Example 166, N-((6-amino-4-methoxy-2-methylpyridin-3-yl)methyl)-2-((3-chloroquinolin-6-yl)methyl)isonicotinamide] | < 5.00
Nc1nccc2cc(CNC(=O)c3ccnc(Cc4ccc5ncc(N6CCOCC6)cc5c4)c3)ccc12 [Example 293, N-((1-aminoisoquinolin-6-yl)methyl)-2-((3-morpholinoquinolin-6-yl)methyl)isonicotinamide] | 5.00 to 6.00
O=C(NCc1cnc2[nH]cc(Cl)c2c1)c1ccnc(Cc2ccc3ncc(N4CCCC4)cc3c2)c1 [Example 310, N-((3-chloro-1H-pyrrolo[2,3-b]pyridin-5-yl)methyl)-2-((3-(pyrrolidin-1-yl)quinolin-6-yl)methyl)isonicotinamide] | 6.00 to 7.00
COc1cnc2ccc(Cc3cc(C(=O)NCc4ccc(N)nc4C)ccn3)cc2c1 [Example 265, N-(6-amino-2-methyl-pyridin-3-ylmethyl)-2-(3-methoxy-quinolin-6-ylmethyl)-isonicotinamide] | > 7.00
Cc1nc2c(cc1CNC(=O)c1ccnc(Cc3ccc4ncc(C(F)(F)F)cc4c3)c1)CCN2 [Example 162, N-((6-methyl-2,3-dihydro-1H-pyrrolo[2,3-b]pyridin-5-yl)methyl)-2-((3-(trifluoromethyl)quinolin-6-yl)methyl)isonicotinamide] | 6.00 to 7.00
Nc1cnc2ccc(Cc3cc(C(=O)NCc4ccc5c(N)nccc5c4)ccn3)cc2c1 [Example 298, N-((1-aminoisoquinolin-6-yl)methyl)-2-((3-aminoquinolin-6-yl)methyl)isonicotinamide] | 6.00 to 7.00
Cc1nc2c(c(C)c1CNC(=O)c1ccnc(Cc3ccc4ncc(Cl)cc4c3)c1)CCCN2 [Example 195, 2-((3-chloroquinolin-6-yl)methyl)-N-((2,4-dimethyl-5,6,7,8-tetrahydro-1,8-naphthyridin-3-yl)methyl)isonicotinamide] | > 7.00
O=C(NCc1n[nH]c2ccc(Cl)cc12)c1ccnc(Cc2ccc3ncc(N4CCCC4)cc3c2)c1 [Example 309, N-((5-chloro-1H-indazol-3-yl)methyl)-2-((3-(pyrrolidin-1-yl)quinolin-6-yl)methyl)isonicotinamide] | 6.00 to 7.00
Cc1nc(N)ccc1CNC(=O)c1ccnc(Cc2ccc3ncc(C(N)=O)cc3c2)c1 [Example 251, 6-((4-(((6-amino-2-methylpyridin-3-yl)methyl)carbamoyl)pyridin-2-yl)methyl)quinoline-3-carboxamide] | 5.00 to 6.00
Cc1ccn2c(C)nc(CNC(=O)c3ccnc(Cc4ccc5ncc(Cl)cc5c4)c3)c2c1 [Example 158, 2-((3-chloroquinolin-6-yl)methyl)-N-((3,7-dimethylimidazo[1,5-a]pyridin-1-yl)methyl)isonicotinamide] | 6.00 to 7.00
Nc1nccc2cc(CNC(=O)c3ccnc(Cc4ccc5ncc(N6CCCCC6)cc5c4)c3)ccc12 [Example 303, N-((1-aminoisoquinolin-6-yl)methyl)-2-((3-(piperidin-1-yl)quinolin-6-yl)methyl)isonicotinamide] | 5.00 to 6.00
